Consider one compound from US10485772B2, “Compositions for modulating cancer stem cells and uses therefor” (University of Canberra, priority 2014, dated 2019).

The experiment concerns laminin-5, uPAR and CD44 transcripts in MDA-MB 231 cells. The experiment can be described thus: TaqMan real time PCR transcript analysis of EMT/CSC genes in basal/metastatic model. The experiment is classed as cell-based, human. To be noted: bisindolylmaleimide-I 4 μM. The procedure:
For most of the experiments, total RNA was extracted from 5×10^5 to 1×10^6 MCF-7 cells unless otherwise specified. Cells were first thawed in 1 mL of Trizol® Reagent (Invitrogen, Carlsbad, Calif.) for 5 minutes at room temperature to inactivate RNases, followed by trituration to dislodge the cell pellet. The dissociated cells suspended in Tizol (1 mL) were transferred into a 1.5 mL Eppendorf tube for 5 minutes for homogenization. RNA was then extracted by addition of 200 μL chloroform and mixing was done vigorously before centrifuging the samples at 8,000×g for 30 minutes at 4° C. The aqueous layer was then collected into a fresh 1.5 mL Eppendorf tube and an equal volume of isopropanolol was added to the aqueous layer and mixed gently. After 5 minutes at room temperature, samples were either snap frozen on dry ice and stored at −70° C. overnight or until the isolation procedure could be re-commenced. […] Next, 2 μL of the sample was taken out to measure RNA quality and quantity on Nano-drop® Spectrophotometer ND 1000 (Nanodrop Technologies, Inc., Wilmington, Del., USA) using ND-1000 V3.30 software. […]
Superscript™® III kit (Invitrogen, Carlsbad, Calif.) was used for cDNA synthesis. […] All the samples were either snap frozen on dry ice or used immediately for quantitative Real-Time PCR analysis. […]
(Quantitative PCR measures a nucleic acid by following its amplification.)

For `CN(C)CCCn1cc(C2=C(c3c[nH]c4ccccc34)C(=O)NC2=O)c2ccccc21` [bisindolylmaleimide-I], the “transcription of key inducible EMT/CSC genes (laminin-5, uPAR, CD44)” value is “inhibits transcription of key inducible EMT/CSC genes”. In addition, the “transcription of key inducible EMT/CSC genes (laminin-5, uPAR, CD44)” value (listed as Broad spectrum PKC pathway inhibitor) is “inhibition of EMT and CSC formation”.
